The values that follow come from article PMC3446843 (Toxicological Sciences, 2012).

The test system of data set [1] is isolated mouse liver mitochondria. In words: Loss of mitochondrial transmembrane potential. In kind it is biochemical. As to conditions: 20% of maximal loss of ΔΨm (50µM mClCCP = 100%), 30-min incubation.
The test system of data set [2] is isolated mouse liver mitochondria, complex I. Put plainly: Oxygen consumption through complex I. The following applies: for O2 cons CI EC20: inhibition of oxygen consumption, malate + glutamate + ADP, 2µM rotenone = 100%; for effect on oxygen consumption (in words): with malate/glutamate and/or succinate.

For the compound `CC(=O)Nc1ccc(O)cc1` [Acetaminophen], the “ΔΨm loss EC20” value in data set [1] is on record as more than 200 µM. Further, the “O2 cons CI EC20” value in data set [2] was more than 400 µM.

Regarding `CC(=O)Oc1ccccc1C(=O)O` [Acetylsalicylic acid], in data set [1], the “ΔΨm loss EC20” value is given as 335.5 µM. Further, in data set [2], the “O2 cons CI EC20” value stood at 149.8 µM. For `CCCN(CCC)C(=O)Cc1c(-c2ccc(Cl)cc2)nc2ccc(Cl)cn12` [Alpidem], in that order: 83.7 µM and 29.6 µM. As for `NC12CC3CC(CC(C3)C1)C2` [Amantadine], the “ΔΨm loss EC20” value in data set [1] amounted to 261.2 µM. Further, in data set [2], the “O2 cons CI EC20” value was more than 400 µM.

Turning to `Nc1c(Br)cc(Br)cc1CN[C@H]1CC[C@H](O)CC1` [Ambroxol], in data set [1], the “ΔΨm loss EC20” value was more than 200 µM. The “O2 cons CI EC20” value in data set [2] is more than 200 µM. Consider `Cc1cc(=O)n(-c2ccccc2)n1C` [Antipyrine], for which the “ΔΨm loss EC20” value in data set [1] is 300.0 µM. In data set [2], the “O2 cons CI EC20” value is recorded as more than 400 µM. For `O=C(O)CCCC[C@@H]1SC[C@@H]2NC(=O)N[C@@H]21` [Biotin], in that order: more than 400 µM and more than 400 µM. For `CC(=O)Oc1ccc(C(c2ccc(OC(C)=O)cc2)c2ccccn2)cc1` [Bisacodyl], in that order: 312.4 µM and 52.5 µM.

For `CCCCN1CCCCC1C(=O)Nc1c(C)cccc1C` (stereo not shown) [Bupivacaine], the “ΔΨm loss EC20” value in data set [1] is 258.2 µM. The “O2 cons CI EC20” value in data set [2] is recorded as more than 800 µM. For `Cn1c(=O)c2c(ncn2C)n(C)c1=O` [Caffeine], in that order: more than 400 µM and more than 400 µM. As to `COc1cc(CNC(=O)CCCC/C=C/C(C)C)ccc1O` [Capsaicin], the “ΔΨm loss EC20” value in data set [1] stood at 275.0 µM. Moreover, the “O2 cons CI EC20” value in data set [2] is 15.7 µM.

`NC(=O)N1c2ccccc2C=Cc2ccccc21` [Carbamazepine]: the “ΔΨm loss EC20” value in data set [1] came out at 66.9 µM. The “effect on oxygen consumption (in words)” value in data set [2] is “increased oxygen consumption”.

Regarding `C=CC1=C(C(=O)O)N2C(=O)[C@@H](NC(=O)/C(=N\OCC(=O)O)c3csc(N)n3)[C@H]2SC1` [Cefixime], the “ΔΨm loss EC20” value in data set [1] was more than 400 µM. Also, the “O2 cons CI EC20” value in data set [2] turned out to be 216.8 µM. For `O=C(O)CCCc1ccc(N(CCCl)CCCl)cc1` [Chlorambucil], in that order: more than 200 µM and 140.9 µM. For `O=P(O)(O)C(Cl)(Cl)P(=O)(O)O` [Clodronate] the same measures were more than 400 µM and 227.2 µM. For `COc1cc(/C=C/C(=O)CC(=O)/C=C/c2ccc(O)c(OC)c2)ccc1O` [Curcumin], in that order: more than 200 µM and more than 200 µM. With `CC(C)(S)[C@@H](N)C(=O)O` [D-penicillamine], the “ΔΨm loss EC20” value in data set [1] is reported as more than 400 µM. The “O2 cons CI EC20” value in data set [2] was more than 800 µM. `Nc1ccc(S(=O)(=O)c2ccc(N)cc2)cc1` [Dapsone]: in data set [1], the “ΔΨm loss EC20” value is reported as more than 400 µM. In data set [2], the “O2 cons CI EC20” value turned out to be 205.5 µM. As to `COc1cccc2c1C(=O)c1c(O)c3c(c(O)c1C2=O)C[C@@](O)(C(C)=O)C[C@@H]3O[C@H]1C[C@H](N)[C@H](O)[C@H](C)O1` [Daunorubicin], in data set [2], the “O2 cons CI EC20” value was determined as 10.9 µM.

As to `C[C@@H]1C[C@H]2[C@@H]3CCC4=CC(=O)C=C[C@]4(C)[C@@]3(F)[C@@H](O)C[C@]2(C)[C@@]1(O)C(=O)CO` [Dexamethasone], in data set [1], the “ΔΨm loss EC20” value is reported as more than 200 µM. For the same compound, the “O2 cons CI EC20” value in data set [2] was more than 200 µM. Turning to `Cc1c(N(C)CS(=O)(=O)[O-])c(=O)n(-c2ccccc2)n1C.[Na+]` [Dipyrone], the “ΔΨm loss EC20” value in data set [1] is reported as 354.4 µM. For the same compound, the “O2 cons CI EC20” value in data set [2] came out at 107.3 µM. With `C#Cc1cccc(Nc2ncnc3cc(OCCOC)c(OCCOC)cc23)c1` [Erlotinib], the “ΔΨm loss EC20” value in data set [1] was 195.9 µM. Besides, the “effect on oxygen consumption (in words)” value in data set [2] is “increased oxygen consumption”. In the case of `CC[C@H]1OC(=O)[C@H](C)[C@@H](O[C@H]2C[C@@](C)(OC)[C@@H](O)[C@H](C)O2)[C@H](C)[C@@H](O[C@@H]2O[C@H](C)C[C@H](N(C)C)[C@H]2O)[C@](C)(O)C[C@@H](C)C(=O)[C@H](C)[C@@H](O)[C@]1(C)O` [Erythromycin], in data set [1], the “ΔΨm loss EC20” value is more than 400 µM. Also, in data set [2], the “O2 cons CI EC20” value was found to be 27.9 µM. For the compound `CCOC(=O)c1ccc(O)cc1` [Ethyl paraben], the “ΔΨm loss EC20” value in data set [1] was found to be 297.5 µM. The “O2 cons CI EC20” value in data set [2] was found to be 47.8 µM. `OC(Cn1cncn1)(Cn1cncn1)c1ccc(F)cc1F` [Fluconazole]: the “ΔΨm loss EC20” value in data set [1] is recorded as 512.7 µM. Further, the “O2 cons CI EC20” value in data set [2] is given as 186.6 µM.

Consider `Nc1nc2ncc(CNc3ccc(C(=O)N[C@@H](CCC(=O)O)C(=O)O)cc3)nc2c(=O)[nH]1` [Folic acid], for which, in data set [1], the “ΔΨm loss EC20” value stood at 276.2 µM. Further, the “O2 cons CI EC20” value in data set [2] stood at 213.0 µM. For `O=C(O)c1cc(O)c(O)c(O)c1` [Gallic acid], in that order: more than 200 µM and 153.9 µM. For `CC(C)Cc1ccc(C(C)C(=O)O)cc1` (stereo not shown) [Ibuprofen], in that order: 355.9 µM and 132.1 µM. For the compound `CC(=O)N1CCN(c2ccc(OCC3COC(Cn4ccnc4)(c4ccc(Cl)cc4Cl)O3)cc2)CC1` (stereo not shown) [Ketoconazole], in data set [1], the “ΔΨm loss EC20” value is listed as 243.0 µM. Further, the “O2 cons CI EC20” value in data set [2] stood at 2.9 µM. For `Nc1ccn([C@@H]2CS[C@H](CO)O2)c(=O)n1` [Lamivudine], in that order: 347.2 µM and 317.4 µM. `CCN(CC)CC(=O)Nc1c(C)cccc1C` [Lidocaine]: the “ΔΨm loss EC20” value in data set [1] stood at 339.5 µM. Besides, the “effect on oxygen consumption (in words)” value in data set [2] was “increased oxygen consumption”.

Regarding `CC[C@H](C)C(=O)O[C@H]1C[C@@H](C)C=C2C=C[C@H](C)[C@H](CC[C@@H]3C[C@@H](O)CC(=O)O3)[C@H]21` [Lovastatin], the “ΔΨm loss EC20” value in data set [1] turned out to be 43.6 µM. For the same compound, the “O2 cons CI EC20” value in data set [2] is given as 6.2 µM.

Turning to `Cc1ccc(Nc2c(F)cccc2Cl)c(CC(=O)O)c1` [Lumiracoxib], the “ΔΨm loss EC20” value in data set [1] was 148.8 µM. Also, the “O2 cons CI EC20” value in data set [2] stood at 12.0 µM. For the compound `[Cl][Mn][Cl]` [Manganese chloride], the “ΔΨm loss EC20” value in data set [1] is listed as more than 800 µM. The “O2 cons CI EC20” value in data set [2] is reported as more than 400 µM.

As to `CN(C)C(=N)N=C(N)N` [Metformin], the “ΔΨm loss EC20” value in data set [1] worked out at 388.4 µM. For the same compound, the “O2 cons CI EC20” value in data set [2] was determined as 351.8 µM. For `COC(=O)c1ccc(O)cc1` [Methyl paraben] the same measures were more than 200 µM and 94.8 µM. For `C[C@](N)(Cc1ccc(O)c(O)c1)C(=O)O` [Methyldopa], in that order: more than 400 µM and 63.1 µM. In the case of `Cc1cc2nc3c(=O)[nH]c(=O)nc-3n(C[C@H](O)[C@H](O)[C@H](O)CO)c2cc1C` [Riboflavin], the “O2 cons CI EC20” value in data set [2] turned out to be 182.8 µM. Regarding `CC[C@]1(O)C[C@@H]2CN(CCc3c([nH]c4ccccc34)[C@@](C(=O)OC)(c3cc4c(cc3OC)N(C)[C@H]3[C@@](O)(C(=O)OC)[C@H](OC(C)=O)[C@]5(CC)C=CCN6CC[C@]43[C@@H]65)C2)C1` [Vinblastine], the “ΔΨm loss EC20” value in data set [1] came out at 25.7 µM. Still for that read-out and setting: to `CCOC(=O)CN[C@@H](C(=O)N1CC[C@H]1C(=O)NCc1ccc(/C(N)=N\O)cc1)C1CCCCC1` [Ximelagatran] belongs 535.7 µM.
